Source: patent US20240059703A1 (AMGEN INC., priority 2021, published 2024)

Assays:
[1] = test system: MIA PaCa-2 (human pancreatic carcinoma) cells; test: Cell Viability Assay (CellTiter-Glo), MIA PaCa-2; assay type: cell-based
Experimental: Serially-diluted compound or DMSO was added to the cells, and plates were incubated at 37° C., 5% CO2 for 72 h. Cell viability was measured using a CellTiter-Glo® Luminescent Cell Viability Assay kit (Promega) according to the manufacturer's protocol. The luminescence signal of treated samples was normalized to DMSO control, and data were analyzed using a 4-parameter logistic model to calculate IC50 values.

KRAS G12C = KRAS G12C (Homo sapiens (Human), UniProt P01116, C118A/G12C); test: 2 h coupled exchange assay; assay type: biochemical; conditions: Avg 2 h Coupled exchange IC50, 2 h compound pre-incubation
Experimental: The term “2 h coupled exchange assay” or “20 h coupled exchange assay” as used herein refers to the assay described in the Section entitled “BIOLOGICAL EVALUATION.”

[2] = test system: A549 (human lung carcinoma) cells; test: Cell Viability Assay (CellTiter-Glo), A549; assay type: cell-based; conditions: Homo sapiens, A549, 72 h
Outline: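 MIA PaCa-2 or A549 cells in RPMI 1640 with 10% FBS were seeded at 1.67E+04 cells/mL and incubated overnight. Serially diluted compound was then added for 72 h at 37° C, 5% CO2. Viability read by CellTiter-Glo luminescence, normalized to DMSO, with IC50 from a 4-parameter logistic fit.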

KRAS G12C, sequence (P01116 other isoform, or with tags, fused parts or gaps G12C/C118A): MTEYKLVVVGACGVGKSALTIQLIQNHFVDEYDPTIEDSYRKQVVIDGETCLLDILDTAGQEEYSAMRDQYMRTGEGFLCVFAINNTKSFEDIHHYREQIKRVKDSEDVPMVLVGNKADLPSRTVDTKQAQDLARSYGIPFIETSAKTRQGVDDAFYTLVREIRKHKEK

| IC50 ([1]; Homo sapiens, MIA PaCa-2, 72 h) [µM] | IC50 (KRAS G12C) [µM] | IC50 [2] [µM] | IC50 ([1]; 72 h) [µM] | IC50 (KRAS G12C; SOS-mediated nucleotide exchange) [µM] | SMILES |
| --- | --- | --- | --- | --- | --- |
| 0.08 | 0.081 | 1.8 |  |  | C=CC(=O)N1CC2(CCN(c3nc4c(c(-c5c(C)c(Cl)cc6cnn(C)c56)c3C)COC(C)(C)C4)C2)C1 (single isomer, unassigned) [Example 14-89, (P)-1-(6-(4-(5-chloro-1,6-dimethyl-1H-indazol-7-yl)-3,7,7-trimethyl-7,8-dihydro-5H-pyrano[4,3-b]pyridin-2-yl)-2,6-diazaspiro[3.4]octan-2-yl)-2-propen-1-one] |
| 0.651 | 0.095 | > 5 |  |  | C=CC(=O)N1CC2(CCN(c3nc4cc(-c5scnc5CO)ccc4c(-c4ccccc4F)c3C#N)C2)C1 [Example 20-18, 4-(2-fluorophenyl)-7-(4-(hydroxymethyl)-1,3-thiazol-5-yl)-2-(2-(2-propenoyl)-2,6-diazaspiro[3.4]octan-6-yl)-3-quinolinecarbonitrile] |
| 0.754 | 0.108 | 4.07 |  |  | C=CC(=O)N1CC2(CCN(c3nc4c(c(-c5ccccc5F)c3C#N)CC[C@](C)(c3scnc3C)C4)C2)C1 [Example 23-12, (7S)-4-(2-fluorophenyl)-7-methyl-7-(4-methyl-1,3-thiazol-5-yl)-2-(2-(2-propenoyl)-2,6-diazaspiro[3.4]octan-6-yl)-5,6,7,8-tetrahydro-3-quinolinecarbonitrile] |
| 0.418 | 0.108 | > 5 |  |  | C=CC(=O)N1CC2(CCN(c3nc4c(c(-c5cc(O)ccc5C(F)(F)F)c3C#N)COC(C)(C)C4)C2)C1 [Example 14-86, 4-(5-hydroxy-2-(trifluoromethyl)phenyl)-7,7-dimethyl-2-(2-(2-propenoyl)-2,6-diazaspiro[3.4]octan-6-yl)-7,8-dihydro-5H-pyrano[4,3-b]pyridine-3-carbonitrile] |
|  | 0.277 | > 5 | 2.18 |  | C=CC(=O)N1CC2(CCN(c3nc4cc(-c5scnc5C)ccc4c(-c4ccccc4Cl)c3C#N)C2)C1 (single isomer, unassigned) [Example 20-3, (M)-4-(2-chlorophenyl)-7-(4-methyl-1,3-thiazol-5-yl)-2-(2-(2-propenoyl)-2,6-diazaspiro[3.4]octan-6-yl)-3-quinolinecarbonitrile] |
| 3.1 | 0.687 | 5.86 |  |  | C=CC(=O)N1CC2(CCN(c3nc4c(c(-c5cccc(OC)c5F)c3C#N)CCC(c3scnc3C)=C4)C2)C1 [Example 23-44, 4-(2-fluoro-3-methoxyphenyl)-7-(4-methyl-1,3-thiazol-5-yl)-2-(2-(2-propenoyl)-2,6-diazaspiro[3.4]octan-6-yl)-5,6-dihydro-3-quinolinecarbonitrile] |
| > 5 | 0.044 | > 5 |  |  | C=CC(=O)N1CC2(CCN(c3nc4c(c(-c5cc(O)ccc5F)c3C#N)CCC(c3scnc3C)=C4)C2)C1 [Example 23-47, 4-(2-fluoro-5-hydroxyphenyl)-7-(4-methyl-1,3-thiazol-5-yl)-2-(2-(2-propenoyl)-2,6-diazaspiro[3.4]octan-6-yl)-5,6-dihydro-3-quinolinecarbonitrile] |
| 0.176 |  | > 5 |  | 0.098 | C=CC(=O)N1CC2(CCN(c3nc4c(c(-c5c(C)cc(F)c6[nH]ncc56)c3C#N)COC(C)(C)C4)C2)C1 [Example 13-147, 4-(7-fluoro-5-methyl-1H-indazol-4-yl)-7,7-dimethyl-2-(2-(2-propenoyl)-2,6-diazaspiro[3.4]octan-6-yl)-7,8-dihydro-5H-pyrano[4,3-b]pyridine-3-carbonitrile] |
| 1.07 | 0.104 | 5.98 |  |  | C=CC(=O)N1CC2(CCN(c3nc4cc(-c5scnc5C)ccc4c(-c4ccc(F)cc4F)c3C#N)C2)C1 [Example 20-13, 4-(2,4-difluorophenyl)-7-(4-methyl-1,3-thiazol-5-yl)-2-(2-(2-propenoyl)-2,6-diazaspiro[3.4]octan-6-yl)-3-quinolinecarbonitrile] |
